The structures appear in SMILES notation. Where only a bound is given, the exact number is not on record here.

One assay relates to A549 cells. Description: A549 proliferation (viability) assay, Cell Titer Fluor, 72 hours. The format is cell-based. The conditions noted are these: Homo sapiens. The method, boiled down:
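1000 A549 cells/well, RPMI 1640/10% dialyzed FBS, 24 h attach; compound 72 h, 0.5% DMSO, 37 °C/5% CO2; Cell Titer Fluor fluorescence; EC50 via 4-parameter logistic.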

In assay [1] the target is T1, GLS1 (purified recombinant human GAC) (Homo sapiens, UniProt O94925).
T1 sequence (O94925 55-598 isoform O94925-3 limits assumed): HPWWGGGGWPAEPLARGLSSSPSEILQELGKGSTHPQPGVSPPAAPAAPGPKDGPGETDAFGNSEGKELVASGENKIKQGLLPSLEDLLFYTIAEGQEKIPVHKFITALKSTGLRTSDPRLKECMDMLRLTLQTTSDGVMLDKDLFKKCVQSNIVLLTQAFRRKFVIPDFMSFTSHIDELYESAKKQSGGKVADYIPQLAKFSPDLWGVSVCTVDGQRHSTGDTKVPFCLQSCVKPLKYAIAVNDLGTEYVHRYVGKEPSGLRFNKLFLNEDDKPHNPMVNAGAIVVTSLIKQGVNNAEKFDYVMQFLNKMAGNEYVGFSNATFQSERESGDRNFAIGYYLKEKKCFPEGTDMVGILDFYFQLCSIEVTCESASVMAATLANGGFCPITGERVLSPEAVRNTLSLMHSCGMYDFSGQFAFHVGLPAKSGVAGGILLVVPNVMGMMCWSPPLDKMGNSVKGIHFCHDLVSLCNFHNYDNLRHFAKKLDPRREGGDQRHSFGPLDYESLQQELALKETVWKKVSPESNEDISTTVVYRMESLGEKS
The assay is described as follows: GLS1 enzymatic activity assay (dual-coupled, Amplex UltraRed/resorufin). The format is biochemical. The method in brief: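 Recombinant human GAC (2 nM) preincubated with 50 mM potassium phosphate, then inhibitor (10 min each, RT); 1 mM glutamine, pH 7.4 Hepes buffer, 1% DMSO. Glutamate coupled via glutamate oxidase/HRP to resorufin (Ex 530/Em 590), kinetic or 20-min endpoint; IC50 by four-parameter logistic fit.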

In turn, `O=C(CN1CCCCC1)Nc1ccn(CCCCc2nnc(C(=O)NCc3cc(C(F)(F)F)ccn3)s2)c(=O)c1F` [Example 467, 5-(4-{3-fluoro-2-oxo-4-[2-(piperidin-1-yl)acetamido]-1,2-dihydropyridin-1-yl}butyl)-N-{[4-(trifluoromethyl)pyridin-2-yl]methyl}-1,3,4-thiadiazole-2-carboxamide] gave an EC50 with A549 cells of 100 to 500 nM. In addition, in assay [1], the IC50 was less than 100 nM.

In turn, `Cc1ccc(CNC(=O)c2nnc(CCCCn3ccc(NC(=O)OC4CCC4)c(F)c3=O)s2)cn1` [Example 468, Cyclobutyl(3-fluoro-1-(4-(5-(((6-methylpyridin-3-yl)methyl)carbamoyl)-1,3,4-thiadiazol-2-yl)butyl)-2-oxo-1,2-dihydropyridin-4-yl)carbamate] showed an EC50 in the assay with A549 cells of 100 to 500 nM. Further, in assay [1], the IC50 was 100 to 500 nM.

In turn, `O=C(Nc1ccn(CCCCc2nnc(C(=O)NCc3cc(C(F)(F)F)ccn3)s2)c(=O)c1F)OC1CCC1` [Example 469, cyclobutyl N-(3-fluoro-2-oxo-1-{4-[5-({[4-(trifluoromethyl)pyridin-2-yl]methyl}carbamoyl)-1,3,4-thiadiazol-2-yl]butyl}-1,2-dihydropyridin-4-yl)carbamate] came in with an EC50 with A549 cells of 100 to 500 nM. The IC50 in assay [1] is less than 100 nM.

Turning to `O=C(Nc1ccn(CCC(F)Cn2cc(C(=O)NCc3cccc(OC(F)(F)F)c3)nn2)c(=O)n1)OCc1ccccc1` (stereo not shown) [Example 470, benzyl N-(1-{3-fluoro-4-[4-({[3-(trifluoromethoxy)phenyl]methyl}carbamoyl)-1H-1,2,3-triazol-1-yl]butyl}-2-oxo-1,2-dihydropyrimidin-4-yl)carbamate], the EC50 in the assay on A549 cells was less than 100 nM. The IC50 in assay [1] is less than 100 nM.

In the assay on A549 cells, `CC(C)COC(=O)Nc1ccn(CCC(F)Cn2cc(C(=O)NCc3cccc(OC(F)(F)F)c3)nn2)c(=O)n1` (stereo not shown) [Example 471, 2-methylpropyl N-(1-{3-fluoro-4-[4-({[3-(trifluoro-methoxy)phenyl]methyl}carbamoyl)-1H-1,2,3-triazol-1-yl]butyl}-2-oxo-1,2-dihydropyrimidin-4-yl)carbamate] displayed an EC50 of less than 100 nM. For the same molecule, the IC50 in assay [1] was less than 100 nM.

`O=C(NCc1cccc(OC(F)(F)F)c1)c1cn(CC(F)CCn2ccc(COc3cccc(F)c3)cc2=O)nn1` (stereo not shown) [Example 472, 1-{2-fluoro-4-[4-(3-fluorophenoxymethyl)-2-oxo-1,2-dihydropyridin-1-yl]butyl}-N-{[3-(trifluoromethoxy)phenyl]methyl}-1H-1,2,3-triazole-4-carboxamide]: the EC50 with A549 cells lay within 100 to 500 nM. Further, in assay [1], the IC50 is less than 100 nM.

For `O=C(NCc1cccc(OC(F)(F)F)c1)c1cn(CC(F)CCn2ccc(COc3ccccc3F)cc2=O)nn1` (stereo not shown) [Example 473, 1-{2-fluoro-4-[4-(2-fluorophenoxymethyl)-2-oxo-1,2-dihydropyridin-1-yl]butyl}-N-{[3-(trifluoromethoxy)phenyl]methyl}-1H-1,2,3-triazole-4-carboxamide], the EC50 with A549 cells was 100 to 500 nM. In addition, the IC50 in assay [1] was less than 100 nM.

In turn, `O=C(NCc1cccc(OC(F)(F)F)c1)c1cn(CC(F)CCn2ccc(COc3c(F)cccc3F)cc2=O)nn1` (stereo not shown) [Example 474, 1-{4-[4-(2,6-difluorophenoxymethyl)-2-oxo-1,2-dihydropyridin-1-yl]-2-fluorobutyl}-N-{[3-(trifluoromethoxy)phenyl]methyl}-1H-1,2,3-triazole-4-carboxamide] registered an EC50 in the assay with A549 cells of 100 to 500 nM. Further, the IC50 in assay [1] is less than 100 nM.

For `O=C(NCc1cccc(OC(F)(F)F)c1)c1cn(CC(F)CCn2ccc(COc3cccc(Cl)c3)cc2=O)nn1` (stereo not shown) [Example 475, 1-{4-[4-(3-chlorophenoxymethyl)-2-oxo-1,2-dihydropyridin-1-yl]-2-fluorobutyl}-N-{[3-(trifluoromethoxy)phenyl]methyl}-1H-1,2,3-triazole-4-carboxamide], the EC50 in the assay with A549 cells is 500 to 5000 nM. Moreover, in assay [1], the IC50 is less than 100 nM.

As to `O=C(NCc1cccc(OC(F)(F)F)c1)c1cn(CC(F)CCn2ccc(COc3cccc(OC(F)(F)F)c3)cc2=O)nn1` (stereo not shown) [Example 476, 1-(2-fluoro-4-{2-oxo-4-[3-(trifluoromethoxy)phenoxymethyl]-1,2-dihydropyridin-1-yl}butyl)-N-{[3-(trifluoromethoxy)phenyl]methyl}-1H-1,2,3-triazole-4-carboxamide], in the assay on A549 cells, the EC50 is 500 to 5000 nM. In addition, the IC50 in assay [1] was less than 100 nM.

Consider `O=C(NCc1cccc(OC(F)(F)F)c1)c1cn(CC(F)CCn2ccc(COc3ccc(Cl)cc3)cc2=O)nn1` (stereo not shown) [Example 477, 1-{4-[4-(4-chlorophenoxymethyl)-2-oxo-1,2-dihydropyridin-1-yl]-2-fluorobutyl}-N-{[3-(trifluoromethoxy)phenyl]methyl}-1H-1,2,3-triazole-4-carboxamide], for which the EC50 with A549 cells lay within 100 to 500 nM. Moreover, the IC50 in assay [1] is less than 100 nM.

`O=C(NCc1cccc(OC(F)(F)F)c1)c1cn(CC(F)CCn2ccc(COc3ccc(F)cc3F)cc2=O)nn1` (stereo not shown) [Example 478, 1-{4-[4-(2,4-difluorophenoxymethyl)-2-oxo-1,2-dihydropyridin-1-yl]-2-fluorobutyl}-N-{[3-(trifluoromethoxy)phenyl]methyl}-1H-1,2,3-triazole-4-carboxamide] registered an EC50 in the assay on A549 cells of 100 to 500 nM. In assay [1], the IC50 is less than 100 nM.

In the assay on A549 cells, `O=C(NCc1cccc(OC(F)(F)F)c1)c1cn(CC(F)CCn2ccc(Cn3ccccc3=O)cc2=O)nn1` (stereo not shown) [Example 479, 1-(2-fluoro-4-{2-oxo-4-[(2-oxo-1,2-dihydropyridin-1-yl)methyl]-1,2-dihydropyridin-1-yl}butyl)-N-{[3-(trifluoromethoxy)phenyl]methyl}-1H-1,2,3-triazole-4-carboxamide] gave an EC50 of 500 to 5000 nM. For the same molecule, the IC50 in assay [1] lay in the range of 500 to 5000 nM.

As to `O=C(NCc1cccc(OC(F)(F)F)c1)c1cn(CC(F)CCn2ccc(COc3ccccn3)cc2=O)nn1` (stereo not shown) [Example 480, 1-(2-fluoro-4-{2-oxo-4-[(pyridin-2-yloxy)methyl]-1,2-dihydropyridin-1-yl}butyl)-N-{[3-(trifluoromethoxy)phenyl]methyl}-1H-1,2,3-triazole-4-carboxamide], the EC50 with A549 cells lay within 500 to 5000 nM. For the same molecule, in assay [1], the IC50 fell in the range of 100 to 500 nM.

For `O=C(NCc1cc(C(F)(F)F)ccn1)c1cn(CC(F)CCn2ccc(COc3cccc(Cl)c3)cc2=O)nn1` (stereo not shown) [Example 481, 1-{4-[4-(3-chlorophenoxymethyl)-2-oxo-1,2-dihydropyridin-1-yl]-2-fluorobutyl}-N-{[4-(trifluoromethyl)pyridin-2-yl]methyl}-1H-1,2,3-triazole-4-carboxamide], the half-maximal effective concentration (EC50) with A549 cells was in the range of 100 to 500 nM. Further, the IC50 in assay [1] was less than 100 nM.

For the molecule `O=C(NCc1cc(C(F)(F)F)ccn1)c1cn(CC(F)CCn2ccc(COc3cccc(F)c3)cc2=O)nn1` (stereo not shown) [Example 482, 1-{2-fluoro-4-[4-(3-fluorophenoxymethyl)-2-oxo-1,2-dihydropyridin-1-yl]butyl}-N-{[4-(trifluoromethyl)pyridin-2-yl]methyl}-1H-1,2,3-triazole-4-carboxamide], in the assay with A549 cells, the EC50 lay in the range of 100 to 500 nM. Also, the IC50 in assay [1] is less than 100 nM.

In turn, `O=C(NCc1cc(C(F)(F)F)ccn1)c1cn(CC(F)CCn2ccc(COc3cccc(OC(F)(F)F)c3)cc2=O)nn1` (stereo not shown) [Example 483, 1-(2-fluoro-4-{2-oxo-4-[3-(trifluoromethoxy)phenoxymethyl]-1,2-dihydropyridin-1-yl}butyl)-N-{[4-(trifluoromethyl)pyridin-2-yl]methyl}-1H-1,2,3-triazole-4-carboxamide] gave an EC50 in the assay on A549 cells of 100 to 500 nM. In addition, the IC50 in assay [1] was less than 100 nM.

Broadly, the EC50 is the concentration giving half of the maximal effect. Usually IC50 stands for the concentration that inhibits the measured activity by half.

These data come from US20160002204A1 (Board of Regents, The University of Texas System, priority 2014, published 2016).
